Drawing on patent publication US8202856B2 (Merck Serono SA, priority 2007, dated 2012), this text covers EC50 for 27 molecules.

pEC50: −log10 of the molar value.

As a reminder, the pEC50 is −log10 of the EC50, conventionally taken in molar units. Low values mean a high EC50, high ones a low EC50.

S1P1 receptor, sequence (P21453 whole entry): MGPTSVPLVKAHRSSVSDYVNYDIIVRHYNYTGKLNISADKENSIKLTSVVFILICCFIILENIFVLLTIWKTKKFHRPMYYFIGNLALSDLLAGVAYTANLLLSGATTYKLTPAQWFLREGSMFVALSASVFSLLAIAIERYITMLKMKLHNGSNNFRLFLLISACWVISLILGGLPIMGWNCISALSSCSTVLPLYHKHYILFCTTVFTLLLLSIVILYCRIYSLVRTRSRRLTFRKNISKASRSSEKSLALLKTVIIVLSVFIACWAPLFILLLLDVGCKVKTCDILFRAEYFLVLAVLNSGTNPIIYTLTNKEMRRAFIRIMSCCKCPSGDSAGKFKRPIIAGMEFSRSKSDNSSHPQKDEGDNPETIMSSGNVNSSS

For this assay, the target named is S1P1 receptor (Homo sapiens, UniProt P21453). The assay is described as follows: 35S-GTPγS binding, membranes from CHO cells expressing S1P1. Type of assay: biochemical. To be noted: CHO cell membranes expressing S1P1. How it is done:
Receptor binding assay: Membranes were prepared from CHO cells expressing S1P1 or S1P3 for use in ligand and 35S-GTPTS binding studies. Cells were suspended in 50 mM TRIS, pH 7.4, 2 mM EDTA, 250 mM Sucrose (buffer A) and 1× Complete protease inhibitor cocktail (Roche), and disrupted at 4° C. by nitrogen decompression using a cell disruption bomb (Parr Instrument). Following centrifugation at 1000 RPM for 10 min at 4° C., the supernatant was suspended in buffer A and centrifuged again at 19000 RPM for 60 min at 4° C. The pellet was then suspended in 10 mM HEPES, pH 7.4, 1 mM EDTA, 250 mM Sucrose (Buffer B), and 1× Complete EDTA-free protease inhibitor cocktail and homogenized using a potter. Membranes were flash frozen in liquid nitrogen and stored at −80° C. [33P]sphingosine 1-phosphate (3000 Ci/mmol; American Radiolabeled Chemicals, Inc.) was added to test compounds in DMSO. Membranes and WGA SPA beads (GE Healthcare) were added to give a final volume of 100 μl in 96-well plates with assay concentrations of […] [33P]sphingosine 1-phosphate (respectively for S1P1 or S1P3), 50 mM HEPES, pH 7.5, 5 mM MgCl2, 100 mM NaCl, 0.4% fatty acid-free BSA, 1-5 μg/well of proteins and 100 μg/well of WGA SPA beads. Binding was performed for 60 min at room temperature on a shaker and bound radioactivity was measured on a PerkinElmer 1450 MicroBeta counter. Specific binding was calculated by subtracting remaining radioactivity in the presence of 1000-fold excess of unlabeled S1P. Binding data were analyzed using the GraphPad Prism program.
Measurements of ^35S-GTPγS Binding: Membranes (1 to 10 μg protein) prepared as described above, were incubated in 96-well Scintiplates (PerkinElmer) with test compounds diluted in DMSO, in 180 μl of 20 mM HEPES, pH 7.4, 10 mM MgCl2, 2 μg/well Saponin, 0.2% fatty acid free BSA (Assay buffer), 140 mM NaCl and 1.7 μM GDP. The assay was initiated with the addition of 20 μl of 1.5 nM [35S]-GTPγS (1100 Ci/mmol; GE Healthcare) in assay buffer. After 60 min incubation at 30° C. on a shaker, plates were centrifuged for 10 min at 2000 RPM. Supernatant was discarded and membrane bound radioactivity was measured on a PerkinElmer 1450 MicroBeta counter. Triplicate samples were averaged and expressed as response relative to S1P activation in absence of compound (n=2).
Background: Binding of GTPγS marks nucleotide exchange on a G protein.
In turn, `O=C1Cc2cc(-c3noc(-c4nnn(-c5ccccc5F)c4-c4ccncc4)n3)ccc2N1` [Example 106, 5-{5-[1-(2-fluorophenyl)-5-pyridin-4-yl-1H-1,2,3-triazol-4-yl]-1,2,4-oxadiazol-3-yl}-1,3-dihydro-2H-indol-2-one] showed a pEC50 of 7.74.
In the case of `OCc1cccc(-c2noc(-c3nnn(-c4ccccc4F)c3-c3ccncc3)n2)c1` [Example 111, (3-{5-[1-(2-fluorophenyl)-5-pyridin-4-yl-1H-1,2,3-triazol-4-yl]-1,2,4-oxadiazol-3-yl}phenyl)methanol], the pEC50 was 7.27. This pEC50 is 0.47 log units lower than that of the molecule before.
In turn, `Oc1cccc(-c2noc(-c3nnn(-c4ccccc4F)c3-c3ccncc3)n2)c1` [Example 124, 3-{5-[1-(2-fluorophenyl)-5-pyridin-4-yl-1H-1,2,3-triazol-4-yl]-1,2,4-oxadiazol-3-yl}phenol] showed a pEC50 of 7.64.
In the case of `O=C(O)[C@H]1CC[C@H](NCc2ccc(-c3noc(-c4nnn(-c5ccccc5F)c4-c4ccncc4)n3)cc2)CC1` [Example 168, (trans)-4-(4-(5-(1-(2-fluorophenyl)-5-(pyridin-4-yl)-1H-1,2,3-triazol-4-yl)-1,2,4-oxadiazol-3-yl)benzylamino)cyclohexanecarboxylic acid] it was 7.80; in that of `Fc1ccccc1-n1nnc(-c2nc(-c3cccc(Cn4cncn4)c3)no2)c1-c1ccccn1` [Example 86, 2-(1-(2-fluorophenyl)-4-{3-[3-(1H-1,2,4-triazol-1-ylmethyl)phenyl]-1,2,4-oxadiazol-5-yl}-1H-1,2,3-triazol-5-yl)pyridine], 6.12; in that of `Fc1ccccc1-n1nnc(-c2nc(-c3cccnc3)no2)c1C1CCCC1` [Example 79, 3-{5-[5-cyclopentyl-1-(2-fluorophenyl)-1H-1,2,3-triazol-4-yl]-1,2,4-oxadiazol-3-yl}pyridine], 6.64.
Next, `Fc1ccccc1-n1nnc(-c2nc(-c3ccc(C4OCCO4)cc3)no2)c1-c1ccncc1` [Example 110, 4-[4-{3-[4-(1,3-dioxolan-2-yl)phenyl]-1,2,4-oxadiazol-5-yl}-1-(2-fluorophenyl)-1H-1,2,3-triazol-5-yl]pyridine]: 6.87; `COc1cc(CCC(=O)O)ccc1-c1noc(-c2nnn(-c3ccccc3F)c2-c2ccccc2)n1` [Example 29, 3-(4-{5-[1-(2-Fluorophenyl)-5-phenyl-1H-1,2,3-triazole-4-yl]-1,2,4-oxadiazole-3-yl}-3-methoxyphenyl)propanoic acid]: 5.90; `Fc1ccccc1-n1nnc(-c2nc(-c3cccc(C(F)(F)F)c3)no2)c1CN1CCOCC1` [Example 151, 4-[(1-(2-fluorophenyl)-4-{3-[3-(trifluoromethyl)phenyl]-1,2,4-oxadiazol-5-yl}-1H-1,2,3-triazol-5-yl)methyl]morpholine]: 6.47.
For `Fc1ccccc1-n1nnc(-c2nc(-c3ccc(Cn4cncn4)cc3)no2)c1-c1ccncc1` [Example 172, 4-(1-(2-fluorophenyl)-4-{3-[4-(1H-1,2,4-triazol-1-ylmethyl)phenyl]-1,2,4-oxadiazol-5-yl}-1H-1,2,3-triazol-5-yl)pyridine], the pEC50 was 8.30.
Next, `Fc1ccccc1-n1nnc(-c2nc(-c3cccnc3)no2)c1Cc1ccccc1` [Example 75, 3-{5-[5-benzyl-1-(2-fluorophenyl)-1H-1,2,3-triazol-4-yl]-1,2,4-oxadiazol-3-yl}pyridine]: 6.18; `COCc1c(-c2nc(-c3cccc(S(N)(=O)=O)c3)no2)nnn1-c1ccccc1F` [Example 93, 3-{5-[1-(2-fluorophenyl)-5-(methoxymethyl)-1H-1,2,3-triazol-4-yl]-1,2,4-oxadiazol-3-yl}benzenesulfonamide]: 6.12.
In the case of `NC(=O)C1CCN(Cc2ccc(-c3noc(-c4nnn(-c5ccccc5F)c4-c4ccncc4)n3)cc2)CC1` [Example 115, 11-(4-{5-[1-(2-fluorophenyl)-5-pyridin-4-yl-1H-1,2,3-triazol-4-yl]-1,2,4-oxadiazol-3-yl}benzyl)piperidine-4-carboxamide] it was 6.61.
In the case of `Fc1ccccc1-n1nnc(-c2nc(-c3ccc(CN4CCC4)cc3)no2)c1-c1ccncc1` [Example 138, 4-[4-{3-[4-(azetidin-1-ylmethyl)phenyl]-1,2,4-oxadiazol-5-yl}-1-(2-fluorophenyl)-1H-1,2,3-triazol-5-yl]pyridine] it was 7.68.
As to `COCc1c(-c2nc(-c3ccc(CN)cc3)no2)nnn1-c1ccccc1F` [Example 81, 1-(4-{5-[1-(2-fluorophenyl)-5-(methoxymethyl)-1H-1,2,3-triazol-4-yl]-1,2,4-oxadiazol-3-yl}phenyl)methanamine], the pEC50 is 6.63.
Next, `OC1CCN(Cc2ccc(-c3noc(-c4nnn(-c5ccccc5F)c4-c4ccncc4)n3)cc2)CC1` [Example 141, 1-(4-{5-[1-(2-fluorophenyl)-5-pyridin-4-yl-1H-1,2,3-triazol-4-yl]-1,2,4-oxadiazol-3-yl}benzyl)piperidin-4-ol]: 7.13.
For `O=C(O)C1(NCc2ccc(-c3noc(-c4nnn(-c5ccccc5F)c4-c4ccncc4)n3)cc2)CC1` [Example 162, 1-(4-(5-(1-(2-fluorophenyl)-5-(pyridin-4-yl)-1H-1,2,3-triazol-4-yl)-1,2,4-oxadiazol-3-yl)benzylamino)cyclopropanecarboxylic acid], the pEC50 is 6.68.
In the case of `O=C(O)c1ccc(-c2noc(-c3nnn(-c4ccccc4F)c3-c3ccccc3)n2)cc1` [Example 24, 4-{5-[1-(2-Fluorophenyl)-5-phenyl-1H-1,2,3-triazole-4-yl]-1,2,4-oxadiazole-3-yl}benzoic acid] it was 5.74; in that of `CN(C)Cc1c(-c2nc(-c3cc(F)ccc3F)no2)nnn1-c1ccccc1F` [Example 91, 1-[4-[3-(2,5-difluorophenyl)-1,2,4-oxadiazol-5-yl]-1-(2-fluorophenyl)-1H-1,2,3-triazol-5-yl]-N,N-dimethylmethanamine], 6.35.
`Fc1ccccc1-c1noc(-c2nnn(-c3ccccc3F)c2C2CCCC2)n1` [Example 78, 5-[5-cyclopentyl-1-(2-fluorophenyl)-1H-1,2,3-triazol-4-yl]-3-(2-fluorophenyl)-1,2,4-oxadiazole] showed a pEC50 of 6.40.
In the case of `Fc1ccccc1-n1nnc(-c2nc(-c3c(F)cccc3F)no2)c1-c1ccncc1` [Example 99, 4-[4-[3-(2,6-difluorophenyl)-1,2,4-oxadiazol-5-yl]-1-(2-fluorophenyl)-1H-1,2,3-triazol-5-yl]pyridine] it was 6.97.
As for `COCc1c(-c2nc(-c3ccc(S(N)(=O)=O)cc3)no2)nnn1-c1ccccc1F` [Example 76, 4-{5-[1-(2-fluorophenyl)-5-(methoxymethyl)-1H-1,2,3-triazol-4-yl]-1,2,4-oxadiazol-3-yl}benzenesulfonamide], the pEC50 is 6.23.
In the case of `Cc1cc(CCC(=O)O)ccc1-c1noc(-c2nnn(-c3ccccc3F)c2-c2ccccc2)n1` [Example 30, 3-(4-{5-[1-(2-Fluorophenyl)-5-phenyl-1H-1,2,3-triazole-4-yl]-1,2,4-oxadiazole-3-yl}-3-methylphenyl)propanoic acid] it was 6.15.
Next, `CC(C)c1c(-c2nc(-c3cc(F)ccc3F)no2)nnn1-c1ccccc1F` [Example 63, 3-(2,5-difluorophenyl)-5-[1-(2-fluorophenyl)-5-isopropyl-1H-1,2,3-triazol-4-yl]-1,2,4-oxadiazole]: 6.51.
In the case of `CC(=O)NC1CCN(Cc2ccc(-c3noc(-c4nnn(-c5ccccc5F)c4-c4ccncc4)n3)cc2)CC1` [Example 137, N-[1-(4-{5-[1-(2-fluorophenyl)-5-pyridin-4-yl-1H-1,2,3-triazol-4-yl]-1,2,4-oxadiazol-3-yl}benzyl)piperidin-4-yl]acetamide], the negative-log EC50 (pEC50) is 6.65.
In the case of `Fc1ccccc1-n1nnc(-c2nc(-c3ccc(Cn4cccn4)cc3)no2)c1-c1ccncc1` [Example 171, 4-(1-(2-fluorophenyl)-4-{3-[4-(1H-pyrazol-1-ylmethyl)phenyl]-1,2,4-oxadiazol-5-yl}-1H-1,2,3-triazol-5-yl)pyridine] it was 7.96; in that of `CS(=O)(=O)c1cccc(-c2noc(-c3nnn(-c4ccccc4F)c3-c3ccccn3)n2)c1` [Example 84, 2-(1-(2-fluorophenyl)-4-{3-[3-(methylsulfonyl)phenyl]-1,2,4-oxadiazol-5-yl}-1H-1,2,3-triazol-5-yl)pyridine], 6.38.
